Molecules are shown by their SMILES.

Results on three compounds are retold here after patent US11191768B2, “Histone acetyltransferase activators and uses thereof” (The Trustees of Columbia University in the City of New York, priority 2014, dated 2021).

The conditions of series [1]: cited from earlier work.
Another series relates to YAC128 mice. Briefly: Accelerating rotarod in the YAC128 Huntington disease model. It is filed as in vivo. Conditions: YF2 5 mg/kg i.p. daily from age 2 months. Here is the method: HAT activator YF2 (U.S. patent application Ser. No. 13/493,490; herein incorporated by reference in its entirety) was tested in the YAC128 Huntington disease model. Animals were treated with YF2 (5 mg/kg, i.p, daily) or vehicle, starting at the age of 2 months.

Regarding `CCOc1ccccc1C(=O)Nc1ccc(Cl)c(C(F)(F)F)c1` [CTB], the Solubility entry in series [1] is reported as “insoluble”.
As to `CCOc1cccc(OCCN(C)C)c1C(=O)Nc1ccc(Cl)c(C(F)(F)F)c1` [YF2], the “Rotarod performance of YF2-treated YAC128 mice versus WT mice” value in the series on YAC128 mice (female mice, 6 months of age, vs WT+YF2 p=0.12734, vs WT+vehicle p=0.1690) is reported as “significance was lost”; in the series with YAC128 mice (male mice, 4 month old, vs WT+YF2 p=0.1946, vs WT+vehicle p=0.0792) it was “significance was lost”.
Turning to `CCCCCCCCCCCCCCCc1cccc(OCC)c1C(=O)Nc1ccc(Cl)c(C(F)(F)F)c1` [CTPB], the Solubility entry in series [1] is recorded as “insoluble”.
